Assay results as given in patent publication US20060057071A1, “Paramagnetic complexes with pendant crown compounds showing improved targeting-specificity as MRI contrast agents” (priority 2004, published 2006).
“And” between values parts separate entries of the source, which are not always exact repeats. Equal values may be shown once.

Key:
MIHA cells [1] = assay: AO/EB staining, laser scanning confocal microscopy; format: cell-based; details: 10 μM, 1 h, 2 h, 8 h, 24 h incubation, 37° C.
Protocol: MIHA cells in the absence (control) and presence of Gd-DOTA (10 μM), Gd-DO3A (10 μM), and GdL1 (10 μM) incubated at 37° C. and 5% CO2, 95% air in a humidified incubator for 1 h, 2 h, 8 h, and 24 h, respectively.
Based on cell morphology and cell membrane integrity, normal, necrotic, and apoptotic cells can be distinguished using laser confocal microscopy. FIG. 22 gives the cell morphology in the absence and presence of Gd-DOTA (10 μM), Gd-DO3A (10 μM), and GdL1 (10 μM) at various time intervals after the incubation. In the absence or presence of the Gd^3+ complexes, the nuclei of the living cells were stained as bright blue spots in the nucleus.

kidney cortex = assay: In vivo MRI, renal intensity enhancement; design: species or system rat; details: for maximal renal intensity enhancement (IE): 0.1 mmol/kg (standard dosage), first few minutes after administration
Protocol: (§1) To study the MRI contrast and biodistribution behavior of gadolinium complexes […] pendant crown ethers, experiments were performed using male Sprague-Dawley (SD) rats that weighted 150-180 g, and were housed at the Wuhan Institute of Physical and Mathematics of the Chinese Academy of Sciences (Wuhan, Hubei Province, China). All procedures conformed to the institutional guidelines for animal welfare. The rat was injected via the femoral vein with 1 mL saline solution of GdL1 in concentrations of 0.1, 0.033, and 0.02 mM/kg, which are the standard dosage, one third and one fifth of the standard dosage used in clinic currently. MR imaging was performed on a 4.7 T Bruker BIO-SPEC-47/30 MRI scanner with a custom spiral surface coil. The animal was scanned in the prone position in the MRI experiment. […] The total duration of the dynamic scanning lasted up to 400 min after the administration, with an image every 4 min. A water tube was placed in the field of view as a phantom reference. The intensity enhancement (IE) of the region of interest (RI) at time point t is expressed by IE=100% (RI(t)-RI(0))/RI(0) where RI(t) corresponds to the normalized signal intensity as measured at time point, t and RI(0) is the normalized signal intensity precontrast.

liver parenchyma = assay: In vivo MRI, hepatic intensity enhancement; design: species or system rat; details: for maximal hepatic IE: rat
Protocol: as §1

[2] = Variable-temperature 17O NMR transverse relaxation rate; format: physicochemical; details: for water exchange rate kex^298 / TM: 25° C.; for TM: pH 6.9, derived from VT 17O NMR spectroscopy; for exchange lifetime TM of inner-sphere coordinated water: 298 K (25° C.)
Source text: (§2) Measuring the relaxation rates of an abundant nuclear species as a function of the magnetic field over a wide range is called relaxometry. A relaxometry profile is a plot of the nuclear magnetic relaxation rate, usually 1/T1, as a function of the Larmor frequency or the magnetic field. This profile is also called a Nuclear Magnetic Resonance Dispersion (NMRD) profile. Compared with the NMRD profile, the prominent advantage of the ^17O NMR technique is that it allows the accurate determination of the water exchange rate 1/TM. This is a consequence of the oxygen nucleus being closer to the paramagnetic centre when bound in the inner-sphere, wherein the outer-sphere contributions to the relaxation rates are negligibly small. With the help of NMRD profiles, ^17O NMR measurements, and the Soloman-Bloemnergen-Morgan theory, several important parameters, such as TM, TR, TV, Δ^2 and rH, can be measured.
The variable-temperature ^17O NMR measurements were recorded on a JEOL EX-90 (2.1 T) spectrometer that was equipped with a 5 mm probe, by using a D2O external lock. The experimental settings were: spectral width of 10000 Hz, pulse width of 7 μs, acquisition time of 10 ms, 1000 scans, and no sample spinning. Solutions containing 2.6% of ^17O isotope were used. The observed transverse relaxation rates (R2obs^O) were calculated from the signal width at half height.

[3] = cited from earlier work
[4] = 1H NMRD profiles (water proton relaxivity); format: physicochemical; details: 25° C., pH 6.9, fits of NMRD profile and 17O NMR
Source text: as §2
Water proton nuclear magnetic resonance dispersion NMRD profile is used to record the longitudinal water proton relaxation rates as a function of magnetic fields. The method is, in principle, sensitive to all of the parameters that influence relaxivity. The ^1H NMRD profiles were measured over a continuum of magnetic field strength from 0.00024 to 0.24 T (corresponding to 0.01-10 MHz proton Larmor frequency, 1 T≈41.7 MHz) on a Spinmaster FFC (Stelar, Mede (PV)), which is a fast field-cycling NMR relaxometer installed at the LIMA Laboratory (Bioindustry Park, Ivrea (TO), Italy). The relaxometer worked under complete control with an absolute uncertainty in 1/T1 of ±2%. The NMRD profiles were measured using 1-2 mM solutions of the complexes.

[5] = 298 K; cited from earlier work
[6] = 1H NMRD profiles (water proton relaxivity); format: physicochemical; details: 20 MHz, 25° C., pH 6.9
MIHA cells [7] = assay: In vitro cytotoxicity, MTT / XTT cell proliferation assay; format: cell-based
Protocol: To further investigate the potential ability of GdL1 as an NMRI contrast agent, its cytotoxicity was measured by MTT assay. The toxicity of GdL1 was determined from the dose-dependence of surviving cells after exposure to this Gd^3+ complex at different time intervals. For comparison, the cytotoxicities of Gd-DOTA and Gd-DO3A were measured under the same conditions.
To evaluate the toxicity of prepared Gd^3+ complexes, a calorimetric assay (XTT-based) for the non-radioactive quantification of cell proliferation was applied. In the cell proliferating process, the added tetrazolium salt XTT was cleaved to a formazan dye by metabolically active cells, and the quantification of cell growth was achieved by the variation of the absorbance at 492 nm. […] Different concentrations of drugs were adjusted by performing serial dilution. The incubation period of the cell culture ranged from 1, 2, 8, and 24 hrs. XTT dye at a concentration of 5 mg/mL (sigma, St. Louis, Mo.) was added, and the plates were incubated for 12 h in a moist chamber at 37° C. The optical density was determined by eluting the dye with dimethyl sulfoxide, and the absorbance was measured at 570 nm. At least three independent experiments were performed.

Q: For `O=C([O-])CN1CCN(CC(=O)[O-])CCN(CC(=O)O)CCN(CC(=O)[O-])CC1.[Gd+3]` [Gd-DOTA, reference compound], which “cell morphology (apoptotic or necrotic cells)” value (MIHA cells [1]) is on record?
A: no obvious apoptotic or necrotic cells were found

Q: What about the “maximal renal intensity enhancement (IE)” value (kidney cortex; rat) of the same compound?
A: 110% and 123%

Q: What about the “time after administration at which almost all renal IE was diminished” value (kidney cortex; 0.1 mmol/kg, kidney cortex) of the same compound?
A: 70 min

Q: And the “hepatic IE” value (liver parenchyma; 0.02 mmol/kg)?
A: no remarkable hepatic IE was detected

Q: And the “time after administration of maximal hepatic IE” value (“time … of maximal hepatic IE” below) (liver parenchyma; 0.1 mmol/kg)?
A: 30 to 40 min

Q: What about the “maximal hepatic IE” value (liver parenchyma; 0.1 mmol/kg (standard dosage)) of the same compound?
A: 70%

Q: What about the “time … of maximal hepatic IE” value (liver parenchyma; 0.033 (0.03) mmol/kg) of the same compound?
A: 30 to 40 min

Q: And the “maximal hepatic IE” value (liver parenchyma; 0.033 (0.03) mmol/kg)?
A: 30%

Q: What about the “time after which hepatic IE faded away” value (liver parenchyma; 0.1 and 0.033 mmol/kg) of the same compound?
A: 100 min

Q: What about the “water exchange rate kex^298” value [2] of the same compound?
A: 4.1e+06 s⁻¹

Q: What about the TM [2] of the same compound?
A: 300 ns

Q: What about the “exchange lifetime TM of inner-sphere coordinated water” value ([2]; 2.12 T) of the same compound?
A: 245 ns

Q: And the r1p ([3]; 20 MHz, 298 K, typical values)?
A: 4.74 mM⁻¹ s⁻¹

Q: And the relaxivity ([3]; 37° C., 20 MHz)?
A: 3.4 mM⁻¹ s⁻¹

Q: What about the “bound water molecular resident lifetime TM” value ([3]; 298 K, typical values) of the same compound?
A: about 244 ns

Q: What about the D [4] of the same compound?
A: 2.24E-5 cm^2s^−1

Q: What about the TR [4] of the same compound?
A: 73 ps

Q: And the TV [4]?
A: 7.7 ps

Q: What about the a [4] of the same compound?
A: 4.0 Å

Q: And the q [4]?
A: 1

Q: What about the r [4] of the same compound?
A: 3.1 Å

Q: And the “Δ^2” value [4]?
A: 1.3e+19 s⁻¹

Q: What about the “thermodynamic stability log K” value [5] of the same compound?
A: 24.6

Q: And the “proton relaxivity r1 (r1p)” value [6]?
A: 4.74 mM⁻¹ s⁻¹

Q: With `O=C([O-])CN1CCN(CCN2CCOCCOCCOCCOCC2)CCN(CC(=O)[O-])CCN(CC(=O)[O-])CC1.[Gd+3]` [GdL1, Gd^3+ Complex of L1] as the compound, how does the “cell morphology (apoptotic or necrotic cells)” value (MIHA cells [1]) read?
A: no obvious apoptotic or necrotic cells were found

Q: What about the “viability of the cells” value (MIHA cells [7]; 1×10^−5 mol L^−1 to 1×10^−2 mol L^−1, 1 h, 2 h, 8 h, 24 h incubation) of the same compound?
A: above 90%

Q: And the “effect on cell viability / cytotoxicity” value (MIHA cells [7]; up to 1×10^−2 M, up to 24 h incubation)?
A: not affected obviously

Q: What about the “resident lifetime in renal tissue” value (kidney cortex; 0.1 mmol/kg) of the same compound?
A: > 3 h

Q: And the “maximal renal intensity enhancement (IE)” value (kidney cortex; rat)?
A: ~200%

Q: What about the “renal IE preserved 250 minutes after injection” value (kidney cortex; 0.1 mmol/kg, 250 min) of the same compound?
A: 40%

Q: What about the “kidney contrast enhancement two hours after the injection” value (kidney cortex; 0.1 mmol/kg, two hours) of the same compound?
A: faint contrast enhancement could still be observed

Q: And the “maximal renal IE” value (kidney cortex; 0.033 (0.03) mmol/kg, one third of standard dose, rat)?
A: 123% and 120%

Q: And the “time for which strong renal intensity enhancement is maintained” value (kidney cortex; summary statement)?
A: more than four hours

Q: What about the “time … of maximal hepatic IE” value (liver parenchyma; 0.02 mmol/kg) of the same compound?
A: 60 min

Q: What about the “hepatic IE maintained after 3 h” value (liver parenchyma; 0.02 mmol/kg, 3 h) of the same compound?
A: over 40%

Q: And the “hepatic IE a few minutes after the injection” value (liver parenchyma; 0.03 mmol/kg)?
A: about 50%

Q: What about the “hepatic IE persisting after 320 min” value (liver parenchyma; 0.03 mmol/kg, 320 min) of the same compound?
A: 50%

Q: What about the “time for which high hepatic IE stays on a plateau” value (liver parenchyma; 0.033 mmol/kg) of the same compound?
A: more than 4 h

Q: What about the “hepatic IE level on plateau” value (liver parenchyma; 0.033 mmol/kg, more than 4 h after administration) of the same compound?
A: > 60%

Q: What about the “resident lifetime in hepatic tissues” value (liver parenchyma; 0.1 mmol/kg) of the same compound?
A: > 4 h

Q: What about the “time after administration at which obvious enhancement of the liver was monitored” value (liver parenchyma; 0.1 mmol/kg) of the same compound?
A: 30 min

Q: What about the “time … of maximal hepatic IE” value (liver parenchyma; 0.1 mmol/kg) of the same compound?
A: 90 to 100 min

Q: And the “time for which strong/high hepatic IE was maintained” value (liver parenchyma; 0.1 mmol/kg)?
A: more than 4 h

Q: What about the “maximal hepatic IE” value (liver parenchyma; 0.1 mmol/kg (standard dosage)) of the same compound?
A: 105%

Q: And the “time … of maximal hepatic IE” value (liver parenchyma; 0.033 (0.03) mmol/kg)?
A: 60 to 100 min

Q: What about the “maximal hepatic IE” value (liver parenchyma; 0.033 (0.03) mmol/kg) of the same compound?
A: 90%

Q: What about the “time for which strong hepatic intensity enhancement is maintained” value (liver parenchyma; summary statement) of the same compound?
A: more than four hours

Q: And the “temperature at which R2p attains its maximum” value ([2]; 2.12 T, range 273-340 K)?
A: ~270 K

Q: What about the “water exchange rate kex^298” value [2] of the same compound?
A: 1.82e+07 s⁻¹

Q: And the TM [2]?
A: 55 ns

Q: What about the “exchange lifetime TM of inner-sphere coordinated water” value ([2]; 2.12 T) of the same compound?
A: 55 ns

Q: And the D [4]?
A: 2.24E-5 cm^2s^−1

Q: What about the TR [4] of the same compound?
A: 146 ps

Q: And the TV [4]?
A: 13 ps

Q: What about the a [4] of the same compound?
A: 4.0 Å

Q: What about the q [4] of the same compound?
A: 2

Q: And the r [4]?
A: 2.98 Å

Q: What about the “Δ^2” value [4] of the same compound?
A: 8e+19 s⁻¹

Q: What about the “proton relaxivity r1 (r1p)” value [6] of the same compound?
A: 9.65 mM⁻¹ s⁻¹
